Drawing on patent US20110053897A1 (IRM LLC, priority 2009, published 2011), this text covers IC50 for 72 compounds.

This test deals with T1, Syk kinase (Homo sapiens, UniProt P43405).
T1 construct: purchased
The test can be described thus: Syk kinase inhibition, Caliper LabChip off-chip mobility-shift kinase assay. The following applies: Caliper LabChip assay; read-out: Syk Enzyme IC50. The format is biochemical. The essentials:
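Purified Syk pre-incubated 15 min with compound in 100 mM HEPES pH 7.5, 1 mM DTT, 10 mM MgCl2 or MnCl2, 0.002% Brij-35, then 1.5 μM fluorescein peptide and ATP at apparent KM added; 1–1.5 h at room temperature, 4% DMSO, EDTA stop. Microfluidic mobility-shift product/substrate conversion gave % inhibition; IC50 from 12-point series (10–0.00003 μM) by 4-parameter fit.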
Turning to `CCn1ccc2cc(Nc3cnccn3)nc(N[C@H]3CC[C@@H](CO)C3)c2c1=O` [compound 793], the IC50 worked out at 0.018 µM. For `CCn1ccc2cc(Nc3cc(C)ccn3)nc(N[C@@H]3CC[C@H](CO)C3)c2c1=O` [compound 794], the IC50 worked out at 0.094 µM. For the compound `CCn1ccc2cc(Nc3cnccn3)nc(N[C@@H]3CC[C@H](CO)C3)c2c1=O` [compound 795], the IC50 was found to be 0.051 µM. For `CCn1ccc2cc(Nc3cnccn3)nc(NC3(CO)CC3)c2c1=O` [compound 797], the IC50 was determined as 0.106 µM. For the compound `Cn1ccc2cc(Nc3nccc(O)n3)nc(N[C@H]3CC[C@@H](O)CC3)c2c1=O` [compound 798], the IC50 was 0.128 µM. For `Cn1ccc2cc(Nc3nccc(O)n3)nc(N[C@H]3CC[C@H](O)CC3)c2c1=O` [compound 799] the value was 0.029 µM; for `Cn1ccc2cc(Nc3nccc(O)n3)nc(NC3CCC3)c2c1=O` [compound 800], 0.009 µM. The value for `CCn1ccc2cc(Nc3cc(C)ccn3)nc(N)c2c1=O` [compound 801] was 1.9 µM; that for `CCn1ccc2cc(Nc3cnccn3)nc(N)c2c1=O` [compound 802] was 1.18 µM; that for `CCn1ccc2cc(Nc3nccc(O)n3)nc(N)c2c1=O` [compound 803] was 0.307 µM.

With `Cn1ccc2cc(Nc3nccc(O)n3)nc(Nc3ccc(C(N)=O)cc3)c2c1=O` [compound 804], the IC50 amounted to 0.194 µM. For `Cn1ccc2cc(Nc3nccc(O)n3)nc(Nc3ccc(C(=O)N4CCOCC4)cc3)c2c1=O` [compound 805] the value was 0.752 µM. For `CCn1ccc2cc(Nc3cc(C)ccn3)nc(N[C@H](CO)C(C)(C)C)c2c1=O` [compound 806], the IC50 stood at 0.568 µM.

For `CCn1ccc2cc(Nc3cnccn3)nc(N[C@H](CO)C(C)(C)C)c2c1=O` [compound 807], the IC50 was 0.216 µM. For `CCn1ccc2cc(Nc3cc(C)ccn3)nc(NC(C)(CO)CO)c2c1=O` [compound 808], the IC50 was determined as 0.081 µM. As to `CCn1ccc2cc(Nc3cnccn3)nc(NC(C)(CO)CO)c2c1=O` [compound 809], the IC50 was 0.153 µM.

Consider `Nc1nc(Nc2cnccn2)cc2ccn(CCO)c(=O)c12` [compound 811], for which the IC50 was 0.651 µM. For `Nc1nc(Nc2nccc(O)n2)cc2ccn(CCO)c(=O)c12` [compound 812] the value was 0.359 µM; for `Cc1ccnc(Nc2cc3ccn(CCO)c(=O)c3c(N)n2)c1` [compound 813], 1.05 µM. For `Cc1ccnc(Nc2cc3ccn(CCO)c(=O)c3c(NCC(C)(C)C)n2)c1` [compound 814], the IC50 came out at 0.39 µM. The value for `Cc1ccnc(Nc2cc3ccn(CCO)c(=O)c3c(NCC(F)F)n2)c1` [compound 815] was 0.117 µM.

For the compound `Cc1ccnc(Nc2cc3ccn(CCO)c(=O)c3c(NC3CC3)n2)c1` [compound 817], the IC50 came to 0.108 µM. As to `O=c1c2c(NC3CC3)nc(Nc3cnccn3)cc2ccn1CCO` [compound 818], the IC50 was determined as 0.027 µM.

Turning to `Cc1ccnc(Nc2cc3ccn(C(C)C)c(=O)c3c(NC(C)(C)CO)n2)c1` [compound 819], the IC50 was found to be 0.062 µM.

For `CC(C)n1ccc2cc(Nc3cnccn3)nc(NC(C)(C)CO)c2c1=O` [compound 820], the IC50 stood at 0.084 µM. The value for `Cc1ccnc(Nc2cc3ccn(C(C)C)c(=O)c3c(NC(C)(C)C)n2)c1` [compound 821] was 0.272 µM; that for `CC(C)n1ccc2cc(Nc3cnccn3)nc(NC(C)(C)C)c2c1=O` [compound 822] was 0.165 µM; that for `CC(C)(C)Nc1nc(Nc2cnccn2)cc2c(Cl)cn(CCO)c(=O)c12` [compound 823] was 0.682 µM.

Take `[2H]C([2H])([2H])n1ccc2cc(Nc3cnccn3)nc(NC3CC3)c2c1=O` [compound 824]: the IC50 is 0.018 µM. Take `O=c1c2c(NCC(F)(F)F)nc(Nc3cnccn3)cc2ccn1CCO` [compound 825]: the IC50 turned out to be 0.022 µM. The value for `CC(C)(C)Nc1nc(Nc2nccc(O)n2)cc2ccn(CCO)c(=O)c12` [compound 826] was 0.025 µM; that for `CCn1ccc2cc(Nc3cnccn3)nc(N[C@H]3CC[C@H](CO)C3)c2c1=O` [compound 827] was 0.012 µM; that for `CC(C)(C)Nc1nc(Nc2cc(-c3cccnc3)ccn2)cc2ccn(CCO)c(=O)c12` [compound 828] was 0.072 µM. The value for `CC(C)(C)Nc1nc(Nc2cc(-c3ccccc3)ccn2)cc2ccn(CCO)c(=O)c12` [compound 829] was 0.271 µM; that for `Cn1cc(-c2ccnc(Nc3cc4ccn(CCO)c(=O)c4c(NC(C)(C)C)n3)c2)cn1` [compound 830] was 0.103 µM.

On to `CCn1ccc2cc(Nc3cnccn3)nc(Nc3ccc(C(=O)NCCO)cc3)c2c1=O` [compound 831], for which the IC50 turned out to be 0.213 µM. For `CCn1ccc2cc(Nc3cnccn3)nc(Nc3ccc(C(=O)N4CCC(O)CC4)cc3)c2c1=O` [compound 832], the concentration for half-maximal inhibition (IC50) turned out to be 1.13 µM. For `CCn1ccc2cc(Nc3cnccn3)nc(Nc3ccc(C(=O)N4CCC(O)C4)cc3)c2c1=O` (stereo not drawn) [compound 833] the value was 0.263 µM. Take `CCn1ccc2cc(Nc3cc(C)ccn3)nc(Nc3ccc(C(=O)NCCO)cc3)c2c1=O` [compound 834]: the IC50 amounted to 0.126 µM. The value for `CCn1ccc2cc(Nc3cc(C)ccn3)nc(Nc3ccc(C(=O)N4CCC(O)CC4)cc3)c2c1=O` [compound 835] was 0.131 µM. Take `CCn1ccc2cc(Nc3cc(C)ccn3)nc(Nc3ccc(C(=O)N4CCC(O)C4)cc3)c2c1=O` (stereo not drawn) [compound 836]: the IC50 amounted to 0.119 µM.

On to `CC(C)(C)Nc1nc(Nc2cnccn2)c(Cl)c2ccn(CCO)c(=O)c12` [compound 837], for which the IC50 came to 1.06 µM. Consider `CC1(Nc2nc(Nc3cnccn3)cc3ccn(CCO)c(=O)c23)CC1` [compound 838], for which the IC50 came out at 0.017 µM. For `CC1(Nc2nc(Nc3cnccn3)cc3cc[nH]c(=O)c23)CC1` [compound 839] the value was 0.008 µM; for `CC(C)(C)Nc1nc(Nc2cc(-c3cn[nH]c3)ccn2)cc2ccn(CCO)c(=O)c12` [compound 840], 0.117 µM. For the compound `CC(C)(C)Nc1nc(Nc2cc(-c3ccccn3)ccn2)cc2ccn(CCO)c(=O)c12` [compound 841], the IC50 came to 0.291 µM. With `CC(C)(C)Nc1nc(Nc2cc(-c3ccncc3)ccn2)cc2ccn(CCO)c(=O)c12` [compound 842], the IC50 is 0.051 µM. As to `CC(C)(C)Nc1nc(Nc2cc(-c3nc(CO)cs3)ccn2)cc2ccn(CCO)c(=O)c12` [compound 843], the IC50 was 0.082 µM. The value for `CC(C)(C)Nc1nc(Nc2cc(N3CCCC(CO)C3)ccn2)cc2ccn(CCO)c(=O)c12` (stereo not drawn) [compound 845] was 0.766 µM. Take `CC(C)(C)Nc1nc(Nc2cc(N3CCC(O)CC3)ccn2)cc2ccn(CCO)c(=O)c12` [compound 846]: the IC50 came out at 0.216 µM. The value for `CC(C)(C)Nc1nc(Nc2cc(N3CCC(CO)CC3)ccn2)cc2ccn(CCO)c(=O)c12` [compound 847] was 0.5 µM; that for `CC(C)(C)Nc1nc(Nc2cc(N3CCCC(O)C3)ccn2)cc2ccn(CCO)c(=O)c12` (stereo not drawn) [compound 848] was 0.615 µM. For `CC(C)(C)Nc1nc(Nc2cc(-c3cnn(CC(N)=O)c3)ccn2)cc2ccn(CCO)c(=O)c12` [compound 849] the value was 0.102 µM; for `CC(C)(C)Nc1nc(Nc2cc(-c3ccc4cn[nH]c4c3)ccn2)cc2ccn(CCO)c(=O)c12` [compound 850], 0.559 µM. For `CC(C)(C)Nc1nc(Nc2cc(-c3ccc4[nH]ncc4c3)ccn2)cc2ccn(CCO)c(=O)c12` [compound 851], the IC50 worked out at 0.222 µM.

With `CC(C)Nc1nc(Nc2cc(N3CCC(O)CC3)ccn2)cc2ccn(CCO)c(=O)c12` [compound 852], the IC50 is 0.3 µM. The value for `Cc1cnccc1-c1ccnc(Nc2cc3ccn(CCO)c(=O)c3c(NC(C)(C)C)n2)c1` [compound 853] was 0.111 µM; that for `Cc1cc(-c2ccnc(Nc3cc4ccn(CCO)c(=O)c4c(NC(C)(C)C)n3)c2)ccn1` [compound 854] was 0.064 µM.

As for `Cc1[nH]ncc1-c1ccnc(Nc2cc3ccn(CCO)c(=O)c3c(NC(C)(C)C)n2)c1` [compound 855], the IC50 is 0.244 µM.

With `CC(C)(C)Nc1nc(Nc2cc(C3(C(=O)O)CC3)ccn2)cc2ccn(CCO)c(=O)c12` [compound 856], the IC50 stood at 0.393 µM. Regarding `CC(C)(C)Nc1nc(Nc2cc(CCO)ccn2)cc2ccn(CCO)c(=O)c12` [compound 857], the IC50 came to 0.004 µM. For the compound `C=Cc1ccnc(Nc2cc3ccn(CCO)c(=O)c3c(NC(C)(C)C)n2)c1` [compound 858], the IC50 was 0.046 µM. As to `CC(C)(C)Nc1nc(Nc2cc(C3(C(N)=O)CC3)ccn2)cc2ccn(CCO)c(=O)c12` [compound 859], the IC50 was found to be 0.17 µM.

In the case of `CC(C)(C)Nc1nc(Nc2cc(C3(CO)CC3)ccn2)cc2ccn(CCO)c(=O)c12` [compound 860], the IC50 was 0.028 µM. On to `CC(C)(C)Nc1nc(Nc2cc(C(C)(C)C(=O)O)ccn2)cc2ccn(CCO)c(=O)c12` [compound 861], for which the IC50 was 0.169 µM. For `CC(C)(C)Nc1nc(Nc2cc(C(C)(C)C(N)=O)ccn2)cc2ccn(CCO)c(=O)c12` [compound 862] the value was 0.579 µM; for `CC(C)(C)Nc1nc(Nc2cc(C(C)(C)CO)ccn2)cc2ccn(CCO)c(=O)c12` [compound 863], 0.301 µM. The value for `CC(CO)c1ccnc(Nc2cc3ccn(CCO)c(=O)c3c(NC(C)(C)C)n2)c1` (stereo not drawn) [compound 864] was 0.002 µM. With `CC(C)(C)Nc1nc(Nc2cc(OCCO)ccn2)cc2ccn(CCO)c(=O)c12` [compound 866], the IC50 amounted to 0.011 µM. In the case of `COC(C)c1ccnc(Nc2cc3ccn(CCO)c(=O)c3c(NC(C)(C)C)n2)c1` (stereo not drawn) [compound 868], the IC50 was determined as 0.016 µM. As for `CC(C)(C)Nc1nc(Nc2cc(/C(N)=N/O)ccn2)cc2ccn(CCO)c(=O)c12` [compound 869], the IC50 was determined as 0.006 µM.

Consider `CC(C)(C)Nc1nc(Nc2cc(C3(O)CCC3)ccn2)cc2ccn(CCO)c(=O)c12` [compound 870], for which the IC50 turned out to be 0.076 µM.

By IC50 is commonly meant the midpoint of a concentration-inhibition curve.
